In one series the test system is HeLa cells. In words: PrestoBlue cell viability assay. It is filed as cell-based. As to conditions: 200 mM vancomycin; 2 and 24 h incubation; hydrochloride. As to the method:
HeLa cells were cultured in Dulbecco's Modified Eagle Medium supplemented with 10% fetal bovine serum and 1% penicillin/streptomycin at 37° C. in 5% CO2 in a humidified atmosphere. The cells were seeded to 100% confluence in clear 96-well tissue culture plates (Costar, Corning, N.Y., USA) for 24 h. The cells were then exposed to the different treatments in media and incubated for the specified time. After treatment, the cells were washed in sterile phosphate buffered saline and incubated in 100 μL/well of DMEM (10% FBS, 1% penicillin/streptomycin). Cell viability was evaluated using the PrestoBlue assay (Invitrogen, USA), following the manufacturer's instructions. Briefly, 10 μL of PrestoBlue assay reagent was directly added to each well and the plates were incubated at the cell culture incubator (37° C. and 5% CO2) for 2 h. The absorbance at 570 and 600 nm were then measured using a SpectraMax i3 microplate reader (Molecular Device Inc., Sunnyvale, Calif.). All assays were performed in triplicates.

Another series concerns S. aureus biofilms. Description: Biofilm dispersal assay (crystal violet stain). The class given is cell-based. How it is done:
S. aureus were cultured overnight in agar plates or in lysogeny broth (LB) with agitation (200 rpm) at 37° C. Biofilm formation was evaluated under static conditions using 12-well plates (Falcon, USA). Bacterial cultures made overnight were diluted to an OD595 of 0.1 and further diluted 100× (˜10^5 CFU/mL) in modified tryptic soy broth (3% NaCl, 0.5% glucose) and each well was filled with 2 mL of the diluted bacterial solution and incubated at 37° C. for 24 h. Biofilm dispersal activities were evaluated by removing the culture media from the biofilms after 24 h and replacing it with saline solution (0.9% NaCl) containing either individual or a combination of amino acids at the specified concentrations (pH 7.4), or the other antimicrobial agents used in the clinic (vancomycin, bacitracin, NeutroPhase, Hibiclens). After exposure to the different treatment methods, the plates were gently washed with phosphate buffered saline (PBS, 1×) thrice and then stained with 500 μL of 0.1% (w/v) crystal violet for 30 min. The wells were then washed with PBS and the crystal violet stain was solubilized with 30% acetic acid. The solution was diluted 20 times and biofilm biomass was estimated by measuring the crystal violet stained biofilm remnants, which absorbs at 595 nm.

Entries after “also recorded” stand apart in the source; their conditions may differ. Counter-ions that a name gives are not always drawn.

As for `CN[C@H](CC(C)C)C(=O)N[C@H]1C(=O)N[C@@H](CC(N)=O)C(=O)N[C@H]2C(=O)N[C@H]3C(=O)N[C@H](C(=O)N[C@H](C(=O)O)c4cc(O)cc(O)c4-c4cc3ccc4O)[C@H](O)c3ccc(c(Cl)c3)Oc3cc2cc(c3O[C@@H]2O[C@H](CO)[C@@H](O)[C@H](O)[C@H]2O[C@H]2C[C@](C)(N)[C@H](O)[C@H](C)O2)Oc2ccc(cc2Cl)[C@H]1O` [vancomycin, vancomycin hydrochloride], the in vitro cytotoxicity entry in the series on HeLa cells was “extremely toxic; also recorded: extreme cell toxicity”. In addition, the biofilm disruption entry with S. aureus biofilms (200 mM vancomycin, 24 h incubation) is “promising results”; with S. aureus biofilms (2 to 256 ppm, 24 h, preformed biofilms), “do not disrupt preformed biofilms”.
